Key:
aged mice [1] = assay: Hematoxylin and Eosin (H&E) histological evaluation of spleen in aged mice treated with 15-PGDH inhibitor; type: in vivo; details: aged (25 months) mice, intraperitoneally for 4 weeks, H&E staining
Method: FIG. 3. […] Hematoxylin and Eosin (H&E) staining of spleen in young vehicle treated (4 months), aged vehicle treated (25 months) and aged SW033291 treated (25 months) intraperitoneally for 4 weeks.
(§1) All experiments and protocols were performed in compliance with the institutional guidelines of Stanford University and Administrative Panel on Laboratory Animal Care (APLAC). Aged (>24 mo.) mice C57BL/6 were obtained from the US National Institute on Aging (NIA) for aged muscle studies, and young (2-4 mo.) wild-type C57BL/6 mice from Jackson Laboratory.

aged mice [2] = assay: Luminex assay of mouse sera (serum cytokine levels) in aged mice treated with 15-PGDH inhibitor; type: in vivo; details: aged (25 months) mice, 4 weeks intraperitoneal administration
Description: FIGS. 4A-4H. Inhibition of 15-PGDH rejuvenates systemic cytokine levels. Serum levels of (FIG. 4A) interleukin-10 (IL10), (FIG. 4B) interleukin-6 (IL6), (FIG. 4C) betacellulin (BTC), (FIG. 4D) granulocyte-macrophage colony-stimulating factor (GM-CSF), (FIG. 4E) interleukin-13 (IL13), (FIG. 4F) tumor necrosis factor-alpha (TNFA), (FIG. 4G) interleukin-1 beta (IL1B), and (FIG. 4H) interleukin-22 (IL22) measured in young vehicle (4 months), young SW033291 (4 months), aged vehicle treated (25 months), and aged SW033291 treated (25 months) mice by Luminex bead arrays. MFI—Mean fluorescence intensity.
as §1
Aging is associated with an altered state of inflammation and is associated with changes in circulating levels of various cytokines. Altered cytokine signaling in aging can initiate a cascade of dysregulated signaling pathways that negatively impact the function of various organs. Age-dysregulated cytokine signaling has been implicated in increased mortality, frailty, cellular senescence, vascular aging, cognitive decline, atherosclerosis, risk of osteoarthritis, and loss of bone mineral density in aging. […] Furthermore, a reduction of IL6 is associated with reduced adipose tissue inflammation and reduced cellular senescence. […] Increased IL22 levels are anti-inflammatory in colonic tissue and are beneficial for inflammatory bowel disease and colitis. […] This systemic effect in turn ameliorates the function of other tissues.

CCCC[S+]([O-])c1sc2nc(-c3cccs3)cc(-c3ccccc3)c2c1N (stereo not drawn) [SW033291, 2-(butylsulfinyl)-4-phenyl-6-(thiophen-2-yl)thieno[2,3-b]pyridin-3-amine]
cell density within the splenic follicles (aged mice [1]): increased cell density within the follicles | follicular structure of spleen (aged mice [1]): restored | marginal zone of spleen (aged mice [1]): reestablished | splenic morphology (aged mice [1]; vs aged vehicle and young): rejuvenated the splenic morphology | serum level of interleukin-10 (IL10) (aged mice [2]; FIG. 4A): restored to levels similar to those of young mice | serum level of interleukin-6 (IL6) (aged mice [2]; FIG. 4B): restored to levels similar to those of young mice | serum level of betacellulin (BTC) (aged mice [2]; FIG. 4C): restored to levels similar to those of young mice | serum level of granulocyte-macrophage colony-stimulating factor (GM-CSF) (aged mice [2]; FIG. 4D): restored to levels similar to those of young mice | serum level of interleukin-13 (IL13) (aged mice [2]; FIG. 4E): restored to levels similar to those of young mice | serum level of tumor necrosis factor-alpha (TNFA) (aged mice [2]; FIG. 4F): further increased | serum level of interleukin-1 beta (IL1B) (aged mice [2]; FIG. 4G): further increased | serum level of interleukin-22 (IL22) (aged mice [2]; FIG. 4H): further increased
